Source: ChEMBL document CHEMBL5104091, “Pyridazine as a privileged structure: An updated review on anticancer activity of pyridazine containing bioactive molecules” (Eur J Med Chem, 2021)
pIC50: −log10 of the molar value. In brackets after ≈: the same amount, converted by molar mass.

Legend:
PC-3 = test: Cytotoxicity against human PC-3 cells assessed as cell growth inhibition by MTT assay; format: functional, cell-based
MCF7 [1] = test: Antiproliferative activity against human MCF7 cells assessed as cell growth inhibition; format: functional, cell-based
[2] = Inhibition of tyrosine kinase (unknown origin); parameters: species or system Homo sapiens
MCF-12A = test: Antiproliferative activity against human MCF-12A cells assessed as cell growth inhibition; format: functional, cell-based
HepG2 [3] = test: Cytotoxicity against human HepG2 cells assessed as cell growth inhibition after 48 hrs by SRB assay; format: functional, cell-based; conditions: HepG2, 48 h
KB = test: Cytotoxicity against human KB cells assessed as cell growth inhibition; format: functional, cell-based
SK-MEL = test: Cytotoxicity against human SK-MEL cells assessed as cell growth inhibition; format: functional, cell-based
HepG2 [4] = test: Antiproliferative activity against human HepG2 cells assessed as cell growth inhibition incubated for 24 hrs by MTT assay; format: functional, cell-based; conditions: HepG2, 24 h
MCF7 [5] = test: Antiproliferative activity against human MCF7 cells assessed as cell growth inhibition incubated for 24 hrs by MTT assay; format: functional, cell-based; conditions: MCF7, 24 h
P815 = test: Cytotoxicity against mouse P815 cells assessed as cell growth inhibition measured after 48 hrs by MTT assay; format: functional, cell-based; conditions: P815, 48 h
MCF7 [6] = test: Cytotoxicity against human MCF7 cells assessed as cell growth inhibition measured after 48 hrs by MTT assay; format: functional, cell-based; conditions: MCF7, 48 h
MDA-MB-231 = test: Antiproliferative activity against human MDA-MB-231 cells assessed as cell growth inhibition measured after 48 hrs by WST-1 assay; format: functional, cell-based; conditions: MDA-MB-231, 48 h
HCT-116 [7] = test: Cytotoxicity against human HCT-116 cells assessed as cell growth inhibition measured after 48 hrs by SRB assay; format: functional, cell-based; conditions: HCT-116, 48 h
[8] = biological target: Vascular endothelial growth factor receptor 3 (Homo sapiens) (UniProt P35916); test: Inhibition of VEGFR3 (unknown origin) at 10 uM by ELISA relative to control
Sequence of Vascular endothelial growth factor receptor 3 (Homo sapiens) (P35916 whole entry): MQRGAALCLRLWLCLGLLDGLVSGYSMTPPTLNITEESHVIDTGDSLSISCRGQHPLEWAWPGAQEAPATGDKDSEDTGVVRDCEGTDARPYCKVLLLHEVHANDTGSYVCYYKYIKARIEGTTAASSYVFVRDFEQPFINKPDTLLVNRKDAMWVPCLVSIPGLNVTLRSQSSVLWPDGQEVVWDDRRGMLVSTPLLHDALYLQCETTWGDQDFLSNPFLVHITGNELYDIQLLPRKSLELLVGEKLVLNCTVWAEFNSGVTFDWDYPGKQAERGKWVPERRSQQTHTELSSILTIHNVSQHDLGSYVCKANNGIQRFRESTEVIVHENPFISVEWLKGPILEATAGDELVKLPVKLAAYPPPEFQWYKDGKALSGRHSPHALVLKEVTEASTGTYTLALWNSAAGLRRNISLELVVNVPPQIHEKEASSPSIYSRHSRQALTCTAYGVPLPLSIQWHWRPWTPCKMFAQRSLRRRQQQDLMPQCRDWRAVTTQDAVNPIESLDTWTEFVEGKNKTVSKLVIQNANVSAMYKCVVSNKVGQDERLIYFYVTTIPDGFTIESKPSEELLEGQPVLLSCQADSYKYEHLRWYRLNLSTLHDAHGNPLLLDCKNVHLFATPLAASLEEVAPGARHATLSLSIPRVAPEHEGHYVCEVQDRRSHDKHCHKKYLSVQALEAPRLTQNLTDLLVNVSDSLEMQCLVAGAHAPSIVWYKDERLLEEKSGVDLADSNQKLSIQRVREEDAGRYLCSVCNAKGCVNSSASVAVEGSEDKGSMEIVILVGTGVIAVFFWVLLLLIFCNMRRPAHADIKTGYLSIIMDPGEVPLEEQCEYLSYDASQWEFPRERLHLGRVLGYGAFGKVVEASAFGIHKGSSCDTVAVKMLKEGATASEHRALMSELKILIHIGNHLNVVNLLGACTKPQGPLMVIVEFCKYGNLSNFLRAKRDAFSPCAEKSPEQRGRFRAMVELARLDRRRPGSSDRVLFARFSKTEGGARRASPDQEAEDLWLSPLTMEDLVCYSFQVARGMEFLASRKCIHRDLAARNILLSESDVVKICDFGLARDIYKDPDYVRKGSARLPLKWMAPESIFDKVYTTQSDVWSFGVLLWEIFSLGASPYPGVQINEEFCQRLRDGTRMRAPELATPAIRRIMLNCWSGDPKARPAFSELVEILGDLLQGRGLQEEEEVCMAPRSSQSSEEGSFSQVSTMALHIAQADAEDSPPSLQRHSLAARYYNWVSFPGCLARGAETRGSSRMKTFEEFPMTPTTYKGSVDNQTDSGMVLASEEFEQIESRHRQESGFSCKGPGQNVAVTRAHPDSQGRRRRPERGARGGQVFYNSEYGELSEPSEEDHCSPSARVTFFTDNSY

[9] = In vivo inhibition of VEGFR2 in Swiss albino mouse implanted with mouse Ehrlich cells incubated for 24 hrs by immunohistochemical staining based analysis relative to control; format: functional
[10] = biological target: T1, Vascular endothelial growth factor receptor 2 (Homo sapiens, UniProt P35968); test: Inhibition of VEGFR2 (unknown origin) using poly (Glu,Tyr) 4:1 as substrate measured after 5 mins in presence of ATP by ELISA method
T1 sequence (P35968 whole entry): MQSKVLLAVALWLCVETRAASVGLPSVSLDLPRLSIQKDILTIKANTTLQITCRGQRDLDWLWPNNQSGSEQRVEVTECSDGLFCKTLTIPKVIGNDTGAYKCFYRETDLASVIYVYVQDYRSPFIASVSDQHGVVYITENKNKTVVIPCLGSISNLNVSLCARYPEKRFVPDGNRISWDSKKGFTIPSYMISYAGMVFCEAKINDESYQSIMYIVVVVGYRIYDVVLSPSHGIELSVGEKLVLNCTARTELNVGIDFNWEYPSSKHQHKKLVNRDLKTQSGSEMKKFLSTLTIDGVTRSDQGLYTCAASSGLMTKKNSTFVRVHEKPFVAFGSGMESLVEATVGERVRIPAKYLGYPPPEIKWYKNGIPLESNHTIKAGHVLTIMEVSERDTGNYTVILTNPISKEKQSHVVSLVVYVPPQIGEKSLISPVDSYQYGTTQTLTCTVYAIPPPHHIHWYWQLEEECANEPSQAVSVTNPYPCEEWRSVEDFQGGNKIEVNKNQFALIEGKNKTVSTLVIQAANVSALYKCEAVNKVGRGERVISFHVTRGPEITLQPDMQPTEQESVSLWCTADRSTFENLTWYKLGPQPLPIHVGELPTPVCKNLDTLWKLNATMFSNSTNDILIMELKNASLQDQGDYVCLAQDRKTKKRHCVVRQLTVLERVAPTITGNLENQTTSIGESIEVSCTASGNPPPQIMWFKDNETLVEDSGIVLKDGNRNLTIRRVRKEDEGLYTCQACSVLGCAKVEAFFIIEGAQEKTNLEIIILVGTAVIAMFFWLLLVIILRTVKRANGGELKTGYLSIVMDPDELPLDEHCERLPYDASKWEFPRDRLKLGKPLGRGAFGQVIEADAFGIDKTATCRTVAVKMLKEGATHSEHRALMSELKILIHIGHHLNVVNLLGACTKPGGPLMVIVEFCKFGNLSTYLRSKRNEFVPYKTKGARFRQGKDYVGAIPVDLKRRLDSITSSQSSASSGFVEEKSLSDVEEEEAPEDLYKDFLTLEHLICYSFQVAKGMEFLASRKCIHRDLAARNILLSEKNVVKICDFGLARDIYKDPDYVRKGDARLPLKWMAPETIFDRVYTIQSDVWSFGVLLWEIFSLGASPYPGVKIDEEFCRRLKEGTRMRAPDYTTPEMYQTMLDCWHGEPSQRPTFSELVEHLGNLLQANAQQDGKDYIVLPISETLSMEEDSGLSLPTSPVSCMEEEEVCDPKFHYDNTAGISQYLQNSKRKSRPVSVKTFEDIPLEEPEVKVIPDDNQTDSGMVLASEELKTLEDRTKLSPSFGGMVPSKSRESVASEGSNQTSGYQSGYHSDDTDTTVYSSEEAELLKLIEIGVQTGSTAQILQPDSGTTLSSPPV

ECa-109 cell line = test: Antiproliferative activity against human EC109 cells assessed as inhibition of cell growth; format: functional, cell-based; conditions: read-out: IC50
A549 [11] = test: Antiproliferative activity against human A549 cells assessed as cell growth inhibition measured after 48 hrs by MTT assay; format: functional, cell-based; conditions: A549, 48 h
[12] = biological target: T1, Vascular endothelial growth factor receptor 2; test: Inhibition of VEGFR2 (unknown origin) using ULight-4E-BP1 peptide as substrate incubated for 1 hr in presence of ATP by fluorescence based analysis
A549 [13] = test: Potency index, ratio of Sorafenib IC50 to compound IC50 for antiproliferative activity against human A549 cells assessed as cell growth inhibition measured after 48 hrs by MTT assay; format: functional
MCF7 [14] = test: Cytotoxicity against human MCF7 cells assessed as cell growth inhibition by colorimetric method; format: functional, cell-based
MDA-MB-468 = test: Cytotoxicity against human MDA-MB-468 cells assessed as cell growth reduction measured after 48 hrs by MTT assay; format: functional, cell-based; conditions: MDA-MB-468, 48 h
[15] = biological target: T1, Vascular endothelial growth factor receptor 2; test: Binding affinity to VEGFR2 (unknown origin) at 10 uM using ULight-4E-BP1 peptide as substrate incubated for 1 hr in presence of ATP by fluorescence based analysis relative to control
MCF7 [16] = test: Cytotoxicity against human MCF7 cells assessed as cell growth inhibition measured after 72 hrs by MTT assay; format: functional, cell-based; conditions: MCF7, 72 h
HCT-116 [17] = test: Cytotoxicity against human HCT-116 cells assessed as cell growth inhibition measured after 72 hrs by MTT assay; format: functional, cell-based; conditions: HCT-116, 72 h
[18] = biological target: T2, Hepatocyte growth factor receptor (Homo sapiens, UniProt P08581); test: Inhibition of human recombinant c-MET in presence of ATP by HTRF assay
T2 sequence (P08581 whole entry): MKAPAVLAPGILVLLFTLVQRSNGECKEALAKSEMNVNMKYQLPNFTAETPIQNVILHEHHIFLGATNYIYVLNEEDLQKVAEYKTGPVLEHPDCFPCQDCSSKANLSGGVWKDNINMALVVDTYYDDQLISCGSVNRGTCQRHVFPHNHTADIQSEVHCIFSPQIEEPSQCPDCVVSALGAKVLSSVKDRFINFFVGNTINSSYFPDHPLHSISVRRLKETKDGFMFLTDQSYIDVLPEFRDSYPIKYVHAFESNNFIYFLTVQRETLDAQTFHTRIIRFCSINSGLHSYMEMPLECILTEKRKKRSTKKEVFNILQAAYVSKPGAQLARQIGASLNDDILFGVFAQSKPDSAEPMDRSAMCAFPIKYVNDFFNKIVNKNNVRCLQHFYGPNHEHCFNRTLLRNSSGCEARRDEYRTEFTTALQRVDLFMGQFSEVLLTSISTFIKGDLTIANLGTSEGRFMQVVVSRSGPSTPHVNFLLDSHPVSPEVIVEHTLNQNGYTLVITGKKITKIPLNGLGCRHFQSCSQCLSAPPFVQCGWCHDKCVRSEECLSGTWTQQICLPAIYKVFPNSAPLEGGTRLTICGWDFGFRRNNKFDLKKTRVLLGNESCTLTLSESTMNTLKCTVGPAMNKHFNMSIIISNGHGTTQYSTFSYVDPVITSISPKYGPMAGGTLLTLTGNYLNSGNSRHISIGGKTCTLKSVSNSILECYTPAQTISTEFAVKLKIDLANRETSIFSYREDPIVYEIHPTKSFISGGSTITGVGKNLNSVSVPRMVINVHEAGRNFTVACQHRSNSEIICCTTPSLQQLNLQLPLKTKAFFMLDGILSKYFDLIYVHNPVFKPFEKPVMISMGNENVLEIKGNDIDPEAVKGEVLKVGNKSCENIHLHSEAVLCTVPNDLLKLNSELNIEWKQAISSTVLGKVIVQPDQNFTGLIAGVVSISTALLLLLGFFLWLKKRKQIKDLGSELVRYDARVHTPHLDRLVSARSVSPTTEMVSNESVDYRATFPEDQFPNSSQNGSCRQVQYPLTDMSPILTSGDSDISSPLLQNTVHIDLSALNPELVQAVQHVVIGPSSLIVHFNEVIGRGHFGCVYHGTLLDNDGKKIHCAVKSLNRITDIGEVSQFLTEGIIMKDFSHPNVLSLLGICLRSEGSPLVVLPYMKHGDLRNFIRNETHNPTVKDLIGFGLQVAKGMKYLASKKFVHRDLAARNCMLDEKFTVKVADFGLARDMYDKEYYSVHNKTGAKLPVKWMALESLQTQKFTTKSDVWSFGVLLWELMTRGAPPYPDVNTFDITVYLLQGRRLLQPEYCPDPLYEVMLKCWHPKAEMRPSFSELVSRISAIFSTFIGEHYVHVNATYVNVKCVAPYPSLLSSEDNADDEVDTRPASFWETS

Hs746T = test: Antiproliferative activity against human Hs746T cells assessed as cell growth inhibition measured after 72 hrs by WST-1 assay; format: functional, cell-based
HCT-116 [19] = test: Cytotoxicity against human HCT-116 cells assessed as cell growth inhibition by colorimetric method; format: functional, cell-based
[20] = biological target: T2, Hepatocyte growth factor receptor; test: Inhibition of MET (unknown origin) at 10 uM incubated for 60 mins by spectrophotometric analysis relative to control
Homo sapiens = species: Homo sapiens; test: Inhibition of WNT (unknown origin) at 10 uM measured after 24 hrs by TOPFlash reporter gene assay
[21] = biological target: Poly [ADP-ribose] polymerase 1 (Homo sapiens, UniProt P09874); test: Displacement of [125I]KX1 from PARP1 in human OVCAR-8 cells incubated for 1 hr by wizard gamma counter analysis; format: cell-based
Sequence of Poly [ADP-ribose] polymerase 1 (P09874 whole entry): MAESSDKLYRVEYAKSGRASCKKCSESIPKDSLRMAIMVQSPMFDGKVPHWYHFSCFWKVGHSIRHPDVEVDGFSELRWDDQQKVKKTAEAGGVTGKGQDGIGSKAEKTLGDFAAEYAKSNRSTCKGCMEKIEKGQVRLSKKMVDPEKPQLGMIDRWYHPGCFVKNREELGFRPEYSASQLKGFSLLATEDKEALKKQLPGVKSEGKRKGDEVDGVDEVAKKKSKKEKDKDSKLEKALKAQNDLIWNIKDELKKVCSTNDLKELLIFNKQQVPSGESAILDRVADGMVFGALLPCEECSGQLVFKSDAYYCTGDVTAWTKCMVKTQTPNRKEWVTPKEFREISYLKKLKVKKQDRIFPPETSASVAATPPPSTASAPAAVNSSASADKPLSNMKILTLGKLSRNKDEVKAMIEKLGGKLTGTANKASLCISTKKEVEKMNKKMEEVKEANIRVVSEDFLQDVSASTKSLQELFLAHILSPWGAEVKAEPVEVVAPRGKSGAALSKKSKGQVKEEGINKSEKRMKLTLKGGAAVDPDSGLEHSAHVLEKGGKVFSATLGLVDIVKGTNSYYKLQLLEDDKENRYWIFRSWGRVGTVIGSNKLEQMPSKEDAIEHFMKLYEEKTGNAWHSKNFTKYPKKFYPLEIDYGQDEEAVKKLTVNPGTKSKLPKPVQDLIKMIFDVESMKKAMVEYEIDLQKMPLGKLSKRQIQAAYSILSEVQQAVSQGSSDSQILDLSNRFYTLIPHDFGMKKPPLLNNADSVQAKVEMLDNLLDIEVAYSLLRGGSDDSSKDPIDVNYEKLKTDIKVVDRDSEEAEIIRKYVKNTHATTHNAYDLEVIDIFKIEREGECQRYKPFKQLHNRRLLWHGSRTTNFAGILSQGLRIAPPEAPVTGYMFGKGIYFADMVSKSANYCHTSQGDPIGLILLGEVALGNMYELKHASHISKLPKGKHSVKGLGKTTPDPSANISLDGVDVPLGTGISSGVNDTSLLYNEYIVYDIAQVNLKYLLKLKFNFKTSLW

HepG2 [22] = test: Antiproliferative activity against human HepG2 cells assessed as cell growth inhibition incubated for 48 hrs by MTT assay; format: functional, cell-based; conditions: HepG2, 48 h
MCF7 [23] = test: Antiproliferative activity against human MCF7 cells assessed as cell growth inhibition incubated for 48 hrs by MTT assay; format: functional, cell-based; conditions: MCF7, 48 h

## Sc1nnc(-c2ccc(Oc3ccccc3)cc2)c2ccccc12
PC-3
  IC50: 9.22 µg/mL (≈ 27.9 µM)

## Cc1cccc(NC(=S)NNC(=O)c2nnc3ccc(C)cc3c2N)c1
MCF7 [1]
  pIC50: 6.74
[2]
  pIC50: 6.26
MCF-12A
  pIC50: 4.31

## COC(=O)CNC(=O)Cn1nc(Cc2ccccc2)c2ccccc2c1=O
HepG2 [3]
  IC50: 5.7 µg/mL (≈ 15.6 µM)

## O=c1c(CNc2ccccc2)cc(-c2ccccc2CO)nn1Cc1ccccc1
KB
  pIC50: 5.64
SK-MEL
  pIC50: 5.38

## Cc1cc(-c2ccc(OCC(=O)NNc3nnc(COc4ccc(-c5ccc(Cl)c(C)c5)nn4)o3)nn2)ccc1Cl
HepG2 [4]
  pIC50: 5.06
MCF7 [5]
  pIC50: 5.03

## CCc1ccc2oc(Cc3cc(=O)[nH]nc3C)cc2c1
P815
  pIC50: 4.46
MCF7 [6]
  pIC50: 4.84

## O=C1Nc2ccc(Br)cc2/C1=N/Nc1nnc(-c2ccc(Cl)cc2)c2ccccc12
MDA-MB-231
  pIC50: 4.92

## O=c1c(CNc2ccccc2)cc(OS(=O)(=O)C(F)(F)F)nn1Cc1ccccc1
KB
  pIC50: 5.55
SK-MEL
  pIC50: 5.48

## N=C(N)NS(=O)(=O)c1ccc(Nc2ccc(Nc3cccc(NC(=O)CCCl)c3)nn2)cc1
HCT-116 [7]
  pIC50: 4.41
[8]
  inhibition: 89.6%
[9]
  inhibition (INH): 10%

## O=C(NNc1nn2cnnc2c2ccccc12)Nc1ccccc1
[10]
  pIC50: 6.51

## COc1ccc(NC(=O)CSc2nnc(-c3ccccc3)c3ccccc23)cc1
ECa-109 cell line
  pIC50: 5.09

## CNC(=O)c1cc(Oc2ccc(NC(=O)Nc3ccc(Cl)c(C(F)(F)F)c3)cc2)ccn1 [SORAFENIB]
A549 [11]
  pIC50: 5.90

## CNC(=O)c1cc(Oc2ccc(NC(=O)c3nn(-c4ccc(Cl)cc4)cc(C)c3=O)cc2)ccn1
[12]
  pIC50: 9.92
A549 [11]
  pIC50: 6.43
A549 [13]
  Ratio IC50: 3.4

## S=C(NNc1nn2cnnc2c2ccccc12)Nc1ccccc1
[10]
  pIC50: 6.04

## CC(=O)C(=NNc1ccc(Nc2nnc(-c3ccc(C)c(C)c3)cc2-c2c(-c3ccccc3)[nH]c3ccccc23)cc1)C(C)=O
MCF7 [14]
  IC50: 2.2 µg/mL (≈ 3.71 µM)

## O=C(Cn1nc(Cc2ccccc2)c2ccccc2c1=O)NNC(=S)Nc1ccccc1
HepG2 [3]
  IC50: 7.09 µg/mL (≈ 16 µM)

## Cc1n[nH]c(=S)cc1Cc1cc2cc(Cl)ccc2o1
MDA-MB-468
  pIC50: 4.94

## O=C(Nc1ccc(Cl)c(C(F)(F)F)c1)Nc1nnc2ccc(N3CCOCC3)nn12
[15]
  Activity: 3%

## O=C(NNc1nn2cnnc2c2ccccc12)NC1CCCCC1
MCF7 [16]
  pIC50: 5.06
[10]
  pIC50: 6.96
HCT-116 [17]
  pIC50: 5.22

## O=c1ccc(-c2cccnc2)nn1CC1CN(c2ncc(-c3cnn(C4CCNCC4)c3)cn2)CCO1 (stereo not given)
[18]
  pIC50: 7.46
Hs746T
  pIC50: 5.72

## Cc1ccc(-c2cc(-c3c(-c4ccccc4)[nH]c4ccccc34)c(Nc3ccc(/N=N/c4c(C)nc(N)nc4C)cc3)nn2)cc1C
HCT-116 [19]
  IC50: 2.1 µg/mL (≈ 3.41 µM)

## CC(=O)c1ccc(-c2ccc(=O)n(Cc3nc(-c4ncccn4)no3)n2)s1
[20]
  inhibition: 17%
Homo sapiens
  inhibition: 19%

## COc1cccc(NC(=O)Cc2ccc(-c3nn4c(C)nnc4c4ccccc34)cc2)c1
HCT-116 [17]
  IC50: 57.4 µg/mL

## Sc1nnc(Cc2ccccc2)c2ccccc12
PC-3
  IC50: 8.6 µg/mL (≈ 34.1 µM)

## Cc1n[nH]c(=O)cc1Cc1cc2cc(C(C)C)ccc2o1
P815
  pIC50: 4.46
MCF7 [6]
  pIC50: 4.84

## NNc1nnc(-c2ccc(Oc3ccccc3)cc2)c2ccccc12
PC-3
  IC50: 12.2 µg/mL (≈ 37.2 µM)

## O=C1Nc2ccccc2/C1=N/Nc1nnc(-c2ccccc2)c2ccccc12
MDA-MB-231
  pIC50: 4.92

## COC1CCN(C(=O)c2cc(Cc3n[nH]c(=O)c4ccccc34)ccc2F)C1 (stereo not given)
[21]
  pIC50: 8.38

## COc1ccc(-c2cc(Cc3ccccc3O)c(=O)[nH]n2)cc1
HepG2 [22]
  pIC50: 4.58
MCF7 [23]
  pIC50: < 4.43
